These results are taken from ChEMBL document CHEMBL1138510, “Antimalarial peroxide dyads from natural artemisinin and hydroxyalkylated 1,2,4-trioxanes” (2009).

This assay has as its system Plasmodium falciparum. The assay can be described thus: Antiplasmodial activity against Plasmodium falciparum NF54 infected human A+ erythrocytes after 72 hrs as IC ratio relative to dihydroartemisinin. It is filed as functional.

On to `C=C(C)[C@@H]1OOC2(CCCCC2)O[C@@H]1CCOC1C[C@@H]2O[C@]3(C)CC[C@H]4[C@H](C)CC[C@@H]([C@H]1C)[C@@]24OO3` (mixture of isomers), for which the “Ratio IC50” value turned out to be 0.49.

Turning to `C=C(C)[C@@H]1OOC(C)(C)O[C@@H]1CCO[C@H]1C[C@@H]2O[C@]3(C)CC[C@H]4[C@H](C)CC[C@@H]([C@H]1C)[C@@]24OO3`, the “Ratio IC50” value stood at 0.54.
